Results on 17 compounds are retold here after Sander's compilation of Henry's law constants (doi:10.1016/s0378-4347(00)82845-5).

The nature of the data set: Henry solubility constant Hcp at 310 K (mol/(m3 Pa)). The note with it: reference: Guitart et al. (1989).
Turning to `CC(Cl)(Cl)Cl` [1,1,1-trichloroethane], the “Henry solubility constant Hcp at 310 K” value came to 0.00032.
Turning to `FC(F)(F)C(Cl)Br` (configuration not stated) [1-bromo-1-chloro-2,2,2-trifluoroethane], the “Henry solubility constant Hcp at 310 K” value was determined as 0.00028.
The same measure for `CC(C)CC(C)(C)C` [2,2,4-trimethylpentane]: 4.6e-06; for `FC(F)OC(F)(F)C(F)Cl` (configuration not stated) [2-chloro-1,1,2-trifluoroethyl difluoromethyl ether]: 0.00027; for `c1ccccc1` [benzene]: 0.002.
The same measure for `CCCC` [butane]: 8e-06; for `C1CCCCC1` [cyclohexane]: 3.4e-05; for `C1CC1` [cyclopropane]: 7.8e-05.
The same measure for `ClCCl` [dichloromethane]: 0.0034; for `CCOCC` [diethyl ether]: 0.0063.
For `CC(C)OC(C)C` [diisopropyl ether], the “Henry solubility constant Hcp at 310 K” value worked out at 0.0028.
As for `CCOC(C)=O` [ethyl ethanoate], the figure is 0.043; as for `CCCCCCC` [heptane], 6e-06.
For the compound `CCCCCC` [hexane], the “Henry solubility constant Hcp at 310 K” value was 6.7e-06.
As for `CC(C)=O` [propanone], the “Henry solubility constant Hcp at 310 K” value came to 0.12.
As for `FS(F)(F)(F)(F)F` [sulfur hexafluoride], the figure is 1.4e-06.
Consider `ClC=C(Cl)Cl` [trichloroethene], for which the “Henry solubility constant Hcp at 310 K” value is 0.00055.
